From PubChem BioAssay AID743510 (Broad Institute, 2014)
pIC50: −log10 of the molar value. The source made the active and inactive calls.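 Rule for the calls: active = compounds that block bursicon-driven reporter light with an IC50 below a set limit; inactive = IC50 above that limit.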

Biological target: Bursicon receptor LGR2 (rickets), Drosophila melanogaster
Experiment: LGR2 bursicon receptor antagonists, dose response, cell-based, HEK293, CRE-luciferase, beta-gal normalized, dry powder (AID 743510)
Settings: bursicon-stimulated, antagonist luminescence

SMILES | IC50 | pIC50
C[C@@H]1CCCCO[C@@H](CN(C)C(=O)Nc2cccc3ccccc23)[C@@H](C)CN([C@@H](C)CO)C(=O)c2cc(NC(=O)C3CCCCC3)ccc2O1 | > 35 µM (inactive) | –
C[C@H]1CCCCO[C@H](CN(C)C(=O)Nc2cccc3ccccc23)[C@@H](C)CN([C@@H](C)CO)C(=O)c2cc(NC(=O)C3CCCCC3)ccc2O1 | > 35 µM (inactive) | –
C[C@@H]1CN([C@H](C)CO)C(=O)c2cc(NC(=O)C3CCCCC3)ccc2O[C@@H](C)CCCCO[C@H]1CN(C)C(=O)Nc1cccc2ccccc12 | > 35 µM (inactive) | –
C[C@@H]1CCCCO[C@H](CN(C)C(=O)Nc2cccc3ccccc23)[C@@H](C)CN([C@@H](C)CO)C(=O)c2cc(NC(=O)C3CCCCC3)ccc2O1 | > 35 µM (inactive) | –
C[C@@H]1CCCCO[C@@H](CN(C)C(=O)Nc2cccc3ccccc23)[C@@H](C)CN([C@H](C)CO)C(=O)c2cc(NC(=O)C3CCCCC3)ccc2O1 | > 35 µM (inactive) | –
C[C@@H]1CN([C@@H](C)CO)C(=O)c2cc(NC(=O)C3CCCCC3)ccc2O[C@@H](C)CCCCO[C@@H]1CN(C)C(=O)Nc1cccc2ccccc12 | > 35 µM (inactive) | –
C[C@@H]1CCCCO[C@H](CN(C)C(=O)Nc2cccc3ccccc23)[C@H](C)CN([C@@H](C)CO)C(=O)c2cc(NC(=O)C3CCCCC3)ccc2O1 | > 35 µM (inactive) | –
C[C@@H]1CCCCO[C@H](CN(C)C(=O)Nc2cccc3ccccc23)[C@H](C)CN([C@H](C)CO)C(=O)c2cc(NC(=O)C3CCCCC3)ccc2O1 | > 35 µM (inactive) | –
C[C@H](CO)N1C[C@H](C)[C@H](CN(C)C(=O)Nc2ccc3ccccc3c2)OCCCC[C@H](C)Oc2ccc(NC(=O)C3CCCCC3)cc2C1=O | – | > 4.46
C[C@H](CO)N1C[C@H](C)[C@@H](CN(C)C(=O)Nc2cccc3ccccc23)OCCCC[C@H](C)Oc2ccc(NC(=O)C3CCCCC3)cc2C1=O | > 35 µM (inactive) | –
C[C@@H]1CCCCO[C@@H](CN(C)C(=O)Nc2cccc3ccccc23)[C@H](C)CN([C@@H](C)CO)C(=O)c2cc(NC(=O)C3CCCCC3)ccc2O1 | > 35 µM (inactive) | –
C[C@H]1CCCCO[C@@H](CN(C)C(=O)Nc2cccc3ccccc23)[C@@H](C)CN([C@@H](C)CO)C(=O)c2cc(NC(=O)C3CCCCC3)ccc2O1 | – | > 4.46
C[C@@H]1CN([C@H](C)CO)C(=O)c2cc(NC(=O)C3CCCCC3)ccc2O[C@@H](C)CCCCO[C@@H]1CN(C)C(=O)Nc1cccc2ccccc12 | > 35 µM (inactive) | –
C[C@@H]1CCCCO[C@@H](CN(C)C(=O)Nc2cccc3ccccc23)[C@H](C)CN([C@H](C)CO)C(=O)c2cc(NC(=O)C3CCCCC3)ccc2O1 | > 35 µM (inactive) | –
C[C@@H]1CCCCO[C@H](CN(C)C(=O)Nc2cccc3ccccc23)[C@@H](C)CN([C@H](C)CO)C(=O)c2cc(NC(=O)C3CCCCC3)ccc2O1 | > 35 µM (inactive) | –
C[C@@H]1CN([C@@H](C)CO)C(=O)c2cc(NC(=O)C3CCCCC3)ccc2O[C@@H](C)CCCCO[C@H]1CN(C)C(=O)Nc1cccc2ccccc12 | – | > 4.46
C[C@H](CO)N1C[C@H](C)[C@H](CN(C)C(=O)Nc2cccc3ccccc23)OCCCC[C@H](C)Oc2ccc(NC(=O)C3CCCCC3)cc2C1=O | – | > 4.46

Further lines, results first:

IC50 | pIC50 | SMILES
> 35 µM (inactive) | – | CC(=O)Nc1ccc2c(c1)C(=O)N([C@H](C)CO)C[C@H](C)[C@H](CN(C)C(=O)Nc1ccc(F)cc1)OCCCC[C@H](C)O2
– | > 4.46 | C[C@H](CO)N1C[C@H](C)[C@H](CN(C)C(=O)Nc2ccccc2F)OCCCC[C@H](C)Oc2ccc(NC(=O)C3CCCCC3)cc2C1=O
– | > 4.46 | C[C@H](CO)N1C[C@H](C)[C@H](CN(C)C(=O)Nc2ccc(F)cc2)OCCCC[C@H](C)Oc2ccc(NC(=O)C3CCCC3)cc2C1=O
> 35 µM (inactive) | – | C[C@H](CO)N1C[C@H](C)[C@H](CN(C)C(=O)Nc2ccc(F)cc2)OCCCC[C@H](C)Oc2ccc(NC(=O)C3CCOCC3)cc2C1=O
– | > 4.46 | C[C@H](CO)N1C[C@H](C)[C@H](CN(C)C(=O)Nc2cccc(F)c2)OCCCC[C@H](C)Oc2ccc(NC(=O)C3CCCCC3)cc2C1=O
– | > 4.46 | C[C@H](CO)N1C[C@H](C)[C@H](CN(C)C(=O)Nc2ccc(F)cc2)OCCCC[C@H](C)Oc2ccc(NC(=O)C3CCCCCC3)cc2C1=O
> 35 µM (inactive) | – | C[C@H](CO)N1C[C@H](C)[C@H](CN(C)C(=O)Nc2ccc(F)cc2)OCCCC[C@H](C)Oc2ccc(NC(=O)C3CC3)cc2C1=O
– | > 4.46 | C[C@H](CO)N1C[C@H](C)[C@H](CN(C)C(=O)Nc2ccc(Cl)cc2)OCCCC[C@H](C)Oc2ccc(NC(=O)C3CCCCC3)cc2C1=O
– | > 4.46 | Cc1ccc(NC(=O)N(C)C[C@@H]2OCCCC[C@H](C)Oc3ccc(NC(=O)C4CCCCC4)cc3C(=O)N([C@H](C)CO)C[C@@H]2C)cc1
